Laboratory results from patent US7879547B2, “Method of detecting the presence of asthma or allergies in a patient” (Children's Hospital Medical Center, priority 2002, dated 2011).

Assays:
[1] = system: IL4/IL5 lung transgenic mice; test: Airway hyperresponsiveness to methacholine (Penh, barometric plethysmography) after intratracheal NOHA; assay type: in vivo; details: intratracheal NOHA 100 mcg, Penh recorded 4 hrs later, Example 20, FIG. 12
Protocol: FIG. 12 is a line graph showing the results of airway hyperreactivity measurements (recorded as Penh) in asthmatic mice (IL4/IL5 bitransgenic lung mice) treated with intratracheal NOHA. Airway reactivity to methacholine was assessed in conscious, unrestrained mice by barometric plethysmography, using apparatus and software supplied by Buxco (Troy, N.Y.). This system yields a dimensionless parameter known as enhanced pause (Penh), reflecting changes in wave-form of the pressure signal from the plethysmography chamber combined with a timing comparison of early and late expiration, which can be used to empirically monitor airway function. […]

lung arginase [2] = test: Arginase activity in lung lysates incubated with NOHA in vitro (blood urea nitrogen reagent); assay type: biochemical, mice
Protocol: (§1) FIGS. 11A and 11B are line graphs showing the results of treating lung lysates with N(omega)-hydroxy-L-arginine (NOHA). FIG. 11A illustrates in vitro treatment of lung lysates from […] with NOHA. FIG. 11B illustrates in vitro treatment of transgenic mice that overexpress interleukin 4 with NOHA.
(§2) Arginase activity was measured using the blood urea nitrogen reagent (Sigma Chemical Company, St. Louis, Mo.) according to established techniques as exemplified in Wei, L. H., et al., Proc Natl Acad Sci USA 98, 9260-4. (2001); Li, H. et al. Am J Physiol Regul Integr Comp Physiol 282, R64-R69. (2002); Wei, L. H. et al., Am J Physiol Cell Physiol 279, C248-56. (2000). To measure levels of putrescine following acid extraction, ion-pair reverse phase high performance liquid chromatography was performed.
(§3) IL-4 lung transgenic mice, which have markedly elevated level of lung arginase mRNA and activity, were used to examine the effect of NOHA in vitro and in vivo (FIG. 11). In FIG. 11A, lung lysates from IL-4 lung transgenic mice were incubated with NOHA and the arginase activity at different doses of NOHA (x axis) and arginine is shown. In FIG. 11B, IL-4 transgenic mice were treated with intratracheal NOHA (two doses: 10 and 100 mcg) and the arginase activity in the lungs was measured 4 hrs later.

asthma = test: Treatment of individual suffering from asthma with anti-arginase compound (inhalation); assay type: in vivo; details: inhalation of therapeutically effective amount
Description: An individual suffering from asthma is identified. The individual is provided with a therapeutically effective amount of N(omega)-hydroxy-L-arginine to reduce the indications of asthma.

lung arginase [3] = test: Lung arginase activity after intratracheal NOHA in IL-4 lung transgenic mice; assay type: in vivo; details: IL-4 transgenic mice, intratracheal NOHA 10 and 100 mcg, measured 4 hrs later, FIG. 11B
Protocol: as §1, §2, §3

## N=C(NO)NCCC[C@H](N)C(=O)O [NOHA, N(omega)-hydroxy-L-arginine]
[1]
  development of allergen-induced airway hyperresponsiveness (Penh): blocks the development of allergen-induced airway hyperesponsiveness
Lung arginase [2]; lung lysates from IL-4 lung transgenic mice incubated with different doses of NOHA and arginine, FIG. 11A
  arginase activity in lung lysates: effective to reduce arginase activity in lung lysates
Lung arginase [2]; summary statement referring to Example 15
  arginase activity in the asthmatic lung: blocks arginase activity in the asthmatic lung
asthma
  asthma symptoms: asthma symptoms are reduced
Lung arginase [3]
  arginase activity in the lungs: effective to reduce arginase activity
